# Assay results reported in patent US20240415791A1, “Therapeutic methods and compositions for treating cancer using devimistat and a fatty acid oxidation inhibitor, a tyrosine kinase inhibitor, a glutaminase inhibitor, and/or a glycolysis inhibitor” (Cornerstone Pharmaceuticals, Inc., priority 2021, published 2024).
# Test system: human H460 NSCLC xenografts
# Test: Oral devimistat in H460 NSCLC xenografts
# Type: in vivo, mice
# Details: oral 100 mg/kg on days 8, 15, 22, 29; vs 5% dextrose or untreated
# Description: Human H460 NSCLC cells were obtained from American Type Cell Culture (ATCC) (catalog no. HTB-177, Manassas, VA). These cells tested negative for viral contamination using the Mouse Antibody Production (MAP) test, performed by Charles River Labs Molecular Division, upon the receipt of the tumor cells from ATCC. The tumor cells were maintained at 37° C. in a humidified 5% CO2 atmosphere in T225 tissue culture flasks containing 50 mL of Roswell Park Memorial Institute (RPMI)-1640 solution with 10% Fetal Bovine Serum (FBS) and 2 mM L-glutamine. Cells were split at a ratio of 1:10 every 2-3 days by trypsinization and resuspended in fresh medium in a new flask. Cells were harvested for experiments in the same way at 70-90% confluency.
# CD1-Nu/Nu female mice, ˜4-6 weeks old were obtained from Charles River Laboratories. Mice were housed 5 to a cage in a micro-isolator room in the Department of Animal Laboratory Research of New York State University (SUNY) at Stony Brook. Light-dark cycles were 12 h each daily, with light from 7 a.m. to 7 p.m. […]
# An acclimation period of 7 days was allowed between the arrival of the animal at the study site before tumor inoculation and experimentation. […] Tumor dimensions (length and width) were measured daily before, during and after treatment (using Vernier calipers) and the tumor volume was calculated using the prolate ellipsoid formula: (length×width^2)/2. […]
smiles,measurement,value
"O=C(O)CCCCC(CCSCc1ccccc1)SCc1ccccc1 (stereo not shown) [devimistat, 6,8-bis(benzylsulfanyl)octanoic acid]",tumor growth in H460 NSCLC xenografts,grew much more slowly
